What was measured:
Assay in all cases: Eurofins kinase panel
Assay type in all cases: biochemical
Conditions in all cases: read-out: Inhibition rate (%)
cKit(D816H)(h) = molecular target: T1, cKit(D816H)(h) (Homo sapiens, UniProt P10721, D816H)
T1 construct: purchased Eurofins (KinaseProfiler)

Ret (V804L)(h) = molecular target: T2, Ret (V804L)(h) (Homo sapiens, UniProt P07949, V804L)
T2 construct: purchased Eurofins (KinaseProfiler)

JAK3(h) = molecular target: T3, JAK3(h) (Homo sapiens, UniProt P52333)
T3 construct: purchased Eurofins (KinaseProfiler)
T3 sequence (P52333 1-1124): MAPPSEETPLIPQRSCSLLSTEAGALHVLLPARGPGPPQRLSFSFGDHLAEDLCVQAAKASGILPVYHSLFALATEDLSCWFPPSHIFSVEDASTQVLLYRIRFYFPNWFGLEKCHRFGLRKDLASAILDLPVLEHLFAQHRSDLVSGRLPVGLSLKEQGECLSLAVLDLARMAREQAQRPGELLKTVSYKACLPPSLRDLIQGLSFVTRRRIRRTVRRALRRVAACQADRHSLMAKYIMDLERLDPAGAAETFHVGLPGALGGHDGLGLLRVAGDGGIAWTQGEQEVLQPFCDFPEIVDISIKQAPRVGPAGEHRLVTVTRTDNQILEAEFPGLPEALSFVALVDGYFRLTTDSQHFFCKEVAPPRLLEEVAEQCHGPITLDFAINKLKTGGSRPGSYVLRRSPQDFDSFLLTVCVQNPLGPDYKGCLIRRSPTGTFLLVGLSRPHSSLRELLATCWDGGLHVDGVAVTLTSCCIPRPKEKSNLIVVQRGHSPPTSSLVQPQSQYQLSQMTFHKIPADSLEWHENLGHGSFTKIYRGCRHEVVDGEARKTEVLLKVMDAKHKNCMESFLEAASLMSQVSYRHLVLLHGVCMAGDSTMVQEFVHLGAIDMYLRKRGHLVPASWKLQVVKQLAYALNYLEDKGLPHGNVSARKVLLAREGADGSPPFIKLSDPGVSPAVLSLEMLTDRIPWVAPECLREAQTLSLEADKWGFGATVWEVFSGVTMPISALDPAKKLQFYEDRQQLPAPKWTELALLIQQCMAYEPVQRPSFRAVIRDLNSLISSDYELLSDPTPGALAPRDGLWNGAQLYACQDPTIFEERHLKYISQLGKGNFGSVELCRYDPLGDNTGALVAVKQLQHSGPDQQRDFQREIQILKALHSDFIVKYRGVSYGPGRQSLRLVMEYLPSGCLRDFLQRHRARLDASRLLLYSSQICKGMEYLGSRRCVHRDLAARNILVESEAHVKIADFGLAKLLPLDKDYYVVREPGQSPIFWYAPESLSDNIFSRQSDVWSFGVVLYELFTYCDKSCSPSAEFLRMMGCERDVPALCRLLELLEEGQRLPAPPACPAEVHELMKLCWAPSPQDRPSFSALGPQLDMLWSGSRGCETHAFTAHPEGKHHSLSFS

HPK1(h) = molecular target: T4, HPK1(h) (Homo sapiens, UniProt Q92918)
T4 construct: purchased Eurofins (KinaseProfiler)
T4 sequence (Q92918 whole entry): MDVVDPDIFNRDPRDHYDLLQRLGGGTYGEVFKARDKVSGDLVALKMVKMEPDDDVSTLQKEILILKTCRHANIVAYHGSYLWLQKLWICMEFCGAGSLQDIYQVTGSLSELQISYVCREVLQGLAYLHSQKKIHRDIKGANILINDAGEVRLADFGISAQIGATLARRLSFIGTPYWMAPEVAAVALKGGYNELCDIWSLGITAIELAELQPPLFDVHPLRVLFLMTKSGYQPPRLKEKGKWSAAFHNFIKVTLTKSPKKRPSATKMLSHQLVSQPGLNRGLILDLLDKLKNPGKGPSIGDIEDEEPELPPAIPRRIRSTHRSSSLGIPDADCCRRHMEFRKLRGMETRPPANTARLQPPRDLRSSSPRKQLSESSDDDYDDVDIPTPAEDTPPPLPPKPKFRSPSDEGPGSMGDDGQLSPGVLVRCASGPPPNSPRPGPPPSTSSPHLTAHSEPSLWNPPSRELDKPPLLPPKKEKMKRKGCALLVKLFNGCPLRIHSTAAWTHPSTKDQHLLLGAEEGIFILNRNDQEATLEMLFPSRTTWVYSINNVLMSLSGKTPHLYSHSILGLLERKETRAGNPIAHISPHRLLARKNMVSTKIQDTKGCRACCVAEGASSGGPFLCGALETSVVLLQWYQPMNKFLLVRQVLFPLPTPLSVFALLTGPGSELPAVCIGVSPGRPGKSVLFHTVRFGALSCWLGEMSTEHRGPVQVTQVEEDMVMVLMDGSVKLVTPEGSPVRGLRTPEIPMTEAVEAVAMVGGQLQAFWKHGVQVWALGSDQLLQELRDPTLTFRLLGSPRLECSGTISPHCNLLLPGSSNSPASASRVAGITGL

EGFR(T790M)(h) = molecular target: T5, EGFR(T790M)(h) (Homo sapiens, UniProt P00533, T790M)
T5 construct: purchased Eurofins (KinaseProfiler)
T5 sequence (P00533 25-1210 T790M): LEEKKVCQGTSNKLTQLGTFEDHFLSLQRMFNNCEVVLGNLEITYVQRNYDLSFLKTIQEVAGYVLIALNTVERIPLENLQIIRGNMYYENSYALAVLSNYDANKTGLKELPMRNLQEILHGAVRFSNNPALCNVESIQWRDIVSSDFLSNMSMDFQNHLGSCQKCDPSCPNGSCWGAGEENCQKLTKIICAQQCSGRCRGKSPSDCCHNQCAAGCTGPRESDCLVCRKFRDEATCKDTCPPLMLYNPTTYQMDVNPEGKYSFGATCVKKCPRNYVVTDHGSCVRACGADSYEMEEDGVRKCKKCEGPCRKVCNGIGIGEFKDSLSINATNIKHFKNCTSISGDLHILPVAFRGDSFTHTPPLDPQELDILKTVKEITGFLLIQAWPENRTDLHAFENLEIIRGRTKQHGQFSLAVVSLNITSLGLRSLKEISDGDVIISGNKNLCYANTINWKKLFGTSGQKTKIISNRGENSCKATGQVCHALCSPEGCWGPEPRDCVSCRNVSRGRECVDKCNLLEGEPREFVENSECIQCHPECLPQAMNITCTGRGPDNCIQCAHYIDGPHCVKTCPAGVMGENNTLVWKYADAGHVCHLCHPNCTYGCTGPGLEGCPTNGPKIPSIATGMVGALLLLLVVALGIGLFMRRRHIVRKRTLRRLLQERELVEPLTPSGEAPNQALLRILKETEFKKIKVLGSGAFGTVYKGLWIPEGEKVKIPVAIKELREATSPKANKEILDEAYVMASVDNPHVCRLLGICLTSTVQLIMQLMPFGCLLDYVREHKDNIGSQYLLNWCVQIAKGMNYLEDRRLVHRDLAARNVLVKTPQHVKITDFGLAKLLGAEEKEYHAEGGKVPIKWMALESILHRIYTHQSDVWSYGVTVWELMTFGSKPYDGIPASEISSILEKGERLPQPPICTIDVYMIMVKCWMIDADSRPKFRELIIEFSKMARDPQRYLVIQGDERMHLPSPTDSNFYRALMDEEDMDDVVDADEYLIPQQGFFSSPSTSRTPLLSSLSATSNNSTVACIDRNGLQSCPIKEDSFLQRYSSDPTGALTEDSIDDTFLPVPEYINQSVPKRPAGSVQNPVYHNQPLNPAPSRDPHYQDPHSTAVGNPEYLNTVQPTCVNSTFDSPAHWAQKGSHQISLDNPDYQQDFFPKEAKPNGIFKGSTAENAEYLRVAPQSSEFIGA

IR(h), activated = molecular target: T6, IR(h), activated (Homo sapiens, UniProt P06213)
T6 construct: purchased Eurofins (KinaseProfiler)

IGF-1R(h) = molecular target: T7, IGF-1R(h) (Homo sapiens, UniProt P08069)
T7 construct: purchased Eurofins (KinaseProfiler)

ACTR2(h) = molecular target: T8, ACTR2(h) (Homo sapiens, UniProt P27037)
T8 construct: purchased Eurofins (KinaseProfiler)

Haspin(h) = molecular target: T9, Haspin(h) (Homo sapiens, UniProt Q8TF76)
T9 construct: purchased Eurofins (KinaseProfiler)
T9 sequence (Q8TF76 1-798): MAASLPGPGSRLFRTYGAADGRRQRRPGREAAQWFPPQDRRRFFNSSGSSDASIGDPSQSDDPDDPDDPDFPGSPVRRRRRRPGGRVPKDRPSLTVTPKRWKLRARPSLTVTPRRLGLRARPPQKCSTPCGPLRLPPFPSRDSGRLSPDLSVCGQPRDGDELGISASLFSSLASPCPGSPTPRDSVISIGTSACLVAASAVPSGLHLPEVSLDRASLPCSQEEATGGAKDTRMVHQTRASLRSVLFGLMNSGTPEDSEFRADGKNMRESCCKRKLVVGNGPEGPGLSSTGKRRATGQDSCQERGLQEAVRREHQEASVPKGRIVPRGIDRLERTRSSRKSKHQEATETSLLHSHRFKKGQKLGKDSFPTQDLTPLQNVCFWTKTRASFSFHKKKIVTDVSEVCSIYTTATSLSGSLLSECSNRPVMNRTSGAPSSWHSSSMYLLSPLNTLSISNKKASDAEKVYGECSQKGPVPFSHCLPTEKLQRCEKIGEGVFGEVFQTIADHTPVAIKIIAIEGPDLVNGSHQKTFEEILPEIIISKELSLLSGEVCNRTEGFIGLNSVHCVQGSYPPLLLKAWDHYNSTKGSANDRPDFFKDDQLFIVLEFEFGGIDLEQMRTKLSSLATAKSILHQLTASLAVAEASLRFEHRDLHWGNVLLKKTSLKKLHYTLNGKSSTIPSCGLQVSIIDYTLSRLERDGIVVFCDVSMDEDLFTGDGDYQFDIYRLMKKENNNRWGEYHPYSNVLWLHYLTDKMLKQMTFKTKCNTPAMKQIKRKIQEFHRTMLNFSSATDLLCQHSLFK

MLK2(h) = molecular target: T10, MLK2(h) (Homo sapiens, UniProt Q02779)
T10 construct: purchased Eurofins (KinaseProfiler)
T10 sequence (Q02779 whole entry): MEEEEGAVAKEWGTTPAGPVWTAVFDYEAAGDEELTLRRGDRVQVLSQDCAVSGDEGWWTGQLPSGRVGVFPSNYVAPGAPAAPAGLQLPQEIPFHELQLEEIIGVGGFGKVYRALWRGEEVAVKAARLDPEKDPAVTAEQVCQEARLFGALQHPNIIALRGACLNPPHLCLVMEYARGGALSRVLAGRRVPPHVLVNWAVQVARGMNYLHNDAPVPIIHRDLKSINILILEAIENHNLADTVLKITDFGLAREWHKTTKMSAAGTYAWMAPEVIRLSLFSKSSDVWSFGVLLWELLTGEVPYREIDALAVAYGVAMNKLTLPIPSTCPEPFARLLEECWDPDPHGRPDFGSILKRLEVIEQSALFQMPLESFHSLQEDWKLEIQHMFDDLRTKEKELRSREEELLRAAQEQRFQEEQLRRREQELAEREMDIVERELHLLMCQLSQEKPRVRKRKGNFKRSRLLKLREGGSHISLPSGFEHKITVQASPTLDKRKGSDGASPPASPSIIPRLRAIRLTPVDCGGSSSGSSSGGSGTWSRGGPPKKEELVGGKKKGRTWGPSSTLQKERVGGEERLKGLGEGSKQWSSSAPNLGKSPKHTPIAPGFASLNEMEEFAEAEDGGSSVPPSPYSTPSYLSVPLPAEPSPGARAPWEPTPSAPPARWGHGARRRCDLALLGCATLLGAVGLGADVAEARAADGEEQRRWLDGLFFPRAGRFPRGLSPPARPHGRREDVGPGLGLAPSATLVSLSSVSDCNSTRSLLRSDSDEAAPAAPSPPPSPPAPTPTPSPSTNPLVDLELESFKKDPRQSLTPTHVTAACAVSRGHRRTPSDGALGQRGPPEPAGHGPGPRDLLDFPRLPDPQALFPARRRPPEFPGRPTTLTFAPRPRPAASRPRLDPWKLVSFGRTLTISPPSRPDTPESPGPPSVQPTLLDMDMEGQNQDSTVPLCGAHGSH

T1 sequence (P10721 26-976 D816H): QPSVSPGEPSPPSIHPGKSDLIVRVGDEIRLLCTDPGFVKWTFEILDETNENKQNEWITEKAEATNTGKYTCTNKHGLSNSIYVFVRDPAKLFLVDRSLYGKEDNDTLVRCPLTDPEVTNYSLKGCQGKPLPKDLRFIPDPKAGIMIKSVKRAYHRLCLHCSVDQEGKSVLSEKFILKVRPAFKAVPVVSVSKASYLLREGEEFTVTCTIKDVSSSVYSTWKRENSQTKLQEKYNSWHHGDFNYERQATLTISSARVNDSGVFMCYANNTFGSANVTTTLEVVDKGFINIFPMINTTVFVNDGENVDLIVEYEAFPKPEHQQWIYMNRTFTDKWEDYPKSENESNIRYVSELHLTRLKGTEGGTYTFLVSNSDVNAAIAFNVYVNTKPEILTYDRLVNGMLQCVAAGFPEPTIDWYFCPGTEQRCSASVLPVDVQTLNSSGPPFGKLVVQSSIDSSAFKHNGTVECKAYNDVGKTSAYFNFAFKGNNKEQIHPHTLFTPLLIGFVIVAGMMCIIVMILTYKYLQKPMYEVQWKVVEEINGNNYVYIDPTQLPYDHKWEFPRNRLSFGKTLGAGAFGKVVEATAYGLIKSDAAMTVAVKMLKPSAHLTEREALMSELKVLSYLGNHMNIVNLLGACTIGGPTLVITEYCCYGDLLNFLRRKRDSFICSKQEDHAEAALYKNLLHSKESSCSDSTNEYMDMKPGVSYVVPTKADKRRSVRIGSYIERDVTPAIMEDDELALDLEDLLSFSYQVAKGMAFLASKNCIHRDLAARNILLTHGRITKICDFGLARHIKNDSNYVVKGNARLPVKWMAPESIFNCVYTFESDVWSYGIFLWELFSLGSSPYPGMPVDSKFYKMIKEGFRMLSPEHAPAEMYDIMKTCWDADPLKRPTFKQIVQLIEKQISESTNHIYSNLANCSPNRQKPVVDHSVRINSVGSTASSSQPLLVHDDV
T2 sequence (P07949 29-1114 V804L): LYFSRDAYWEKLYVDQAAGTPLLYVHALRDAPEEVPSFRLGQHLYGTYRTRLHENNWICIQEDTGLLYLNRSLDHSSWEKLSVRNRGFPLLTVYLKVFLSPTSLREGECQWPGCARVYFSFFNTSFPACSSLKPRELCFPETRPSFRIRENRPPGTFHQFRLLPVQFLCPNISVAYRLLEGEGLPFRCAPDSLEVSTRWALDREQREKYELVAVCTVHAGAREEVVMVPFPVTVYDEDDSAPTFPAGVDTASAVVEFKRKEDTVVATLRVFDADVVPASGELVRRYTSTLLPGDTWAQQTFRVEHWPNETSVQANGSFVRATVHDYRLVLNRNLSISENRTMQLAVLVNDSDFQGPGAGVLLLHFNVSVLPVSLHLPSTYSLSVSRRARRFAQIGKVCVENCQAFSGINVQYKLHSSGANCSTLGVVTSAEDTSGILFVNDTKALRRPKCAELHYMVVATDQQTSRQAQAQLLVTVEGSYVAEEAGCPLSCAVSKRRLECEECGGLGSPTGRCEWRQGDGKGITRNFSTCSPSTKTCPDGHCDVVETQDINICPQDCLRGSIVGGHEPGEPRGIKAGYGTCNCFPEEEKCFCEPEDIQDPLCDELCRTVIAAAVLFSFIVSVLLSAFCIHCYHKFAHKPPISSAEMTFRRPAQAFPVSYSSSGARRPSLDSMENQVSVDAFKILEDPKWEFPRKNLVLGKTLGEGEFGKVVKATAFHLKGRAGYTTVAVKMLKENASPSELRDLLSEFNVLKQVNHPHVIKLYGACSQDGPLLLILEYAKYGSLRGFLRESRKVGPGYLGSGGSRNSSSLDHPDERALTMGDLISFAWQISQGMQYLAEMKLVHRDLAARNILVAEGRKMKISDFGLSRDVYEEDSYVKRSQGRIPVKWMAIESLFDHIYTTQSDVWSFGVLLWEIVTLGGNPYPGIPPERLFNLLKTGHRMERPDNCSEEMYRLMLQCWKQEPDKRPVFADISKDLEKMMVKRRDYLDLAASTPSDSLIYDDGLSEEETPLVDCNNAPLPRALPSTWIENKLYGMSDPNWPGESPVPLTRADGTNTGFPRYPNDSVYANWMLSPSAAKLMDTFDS

Which inhibition at 0.01 µM (cKit(D816H)(h); 10 nM) does the source give for COc1cc(OC)c(Cl)c(-c2ccc3c(NC(=O)c4ccc(N5CCNC(C)(C)C5)cc4)n[nH]c3n2)c1Cl [3D185] here?
The inhibition at 0.01 µM was 22%.

And the inhibition at 0.1 µM (cKit(D816H)(h); 100 nM)?
The inhibition at 0.1 µM was 27%.

And the inhibition at 1 µM (cKit(D816H)(h); 1000 nM)?
The inhibition at 1 µM was 44%.

And the inhibition at 0.01 µM (Ret (V804L)(h); 10 nM)?
Its inhibition at 0.01 µM is -13%.

What about the inhibition at 0.1 µM (Ret (V804L)(h); 100 nM) of the same compound?
The inhibition at 0.1 µM was -15%.

What about the inhibition at 1 µM (Ret (V804L)(h); 1000 nM) of the same compound?
The inhibition at 1 µM was 20%.

And the inhibition at 0.01 µM (JAK3(h); 10 nM)?
The inhibition at 0.01 µM was -11%.

And the inhibition at 0.1 µM (JAK3(h); 100 nM)?
The inhibition at 0.1 µM was 0%.

And the inhibition at 1 µM (JAK3(h); 1000 nM)?
Its inhibition at 1 µM is 10%.

And the inhibition at 0.01 µM (HPK1(h); 10 nM)?
Its inhibition at 0.01 µM is 17%.

What about the inhibition at 0.1 µM (HPK1(h); 100 nM) of the same compound?
Its inhibition at 0.1 µM is 65%.

And the inhibition at 1 µM (HPK1(h); 1000 nM)?
The inhibition at 1 µM was 94%.

And the inhibition at 0.01 µM (EGFR(T790M)(h); 10 nM)?
Its inhibition at 0.01 µM is -15%.

And the inhibition at 0.1 µM (EGFR(T790M)(h); 100 nM)?
The inhibition at 0.1 µM was -8%.

What about the inhibition at 1 µM (EGFR(T790M)(h); 1000 nM) of the same compound?
Its inhibition at 1 µM is 29%.

And the inhibition at 0.01 µM (IR(h), activated; 10 nM)?
Its inhibition at 0.01 µM is 9%.

What about the inhibition at 0.1 µM (IR(h), activated; 100 nM) of the same compound?
Its inhibition at 0.1 µM is 42%.

What about the inhibition at 1 µM (IR(h), activated; 1000 nM) of the same compound?
The inhibition at 1 µM was 85%.

What about the inhibition at 0.01 µM (IGF-1R(h); 10 nM) of the same compound?
The inhibition at 0.01 µM was -5%.

What about the inhibition at 0.1 µM (IGF-1R(h); 100 nM) of the same compound?
Its inhibition at 0.1 µM is 54%.

What about the inhibition at 1 µM (IGF-1R(h); 1000 nM) of the same compound?
The inhibition at 1 µM was 88%.

What about the inhibition at 0.01 µM (ACTR2(h); 10 nM) of the same compound?
The inhibition at 0.01 µM was 0%.

And the inhibition at 0.1 µM (ACTR2(h); 100 nM)?
Its inhibition at 0.1 µM is -1%.

What about the inhibition at 1 µM (ACTR2(h); 1000 nM) of the same compound?
Its inhibition at 1 µM is 1%.

What about the inhibition at 0.01 µM (Haspin(h); 10 nM) of the same compound?
The inhibition at 0.01 µM was -15%.

And the inhibition at 0.1 µM (Haspin(h); 100 nM)?
The inhibition at 0.1 µM was -6%.

And the inhibition at 1 µM (Haspin(h); 1000 nM)?
The inhibition at 1 µM was 4%.

What about the inhibition at 0.01 µM (MLK2(h); 10 nM) of the same compound?
Its inhibition at 0.01 µM is 4%.

What about the inhibition at 0.1 µM (MLK2(h); 100 nM) of the same compound?
Its inhibition at 0.1 µM is 2%.

What about the inhibition at 1 µM (MLK2(h); 1000 nM) of the same compound?
Its inhibition at 1 µM is 24%.

Reference: paper PMC6704710, “Preclinical evaluation of 3D185, a novel potent inhibitor of FGFR1/2/3 and CSF-1R, in FGFR-dependent and macrophage-dominant cancer models” (Journal of Experimental & Clinical Cancer Research : CR, 2019)
